Results taken from patent US5481013A, “Carboxylic acid derivatives” (Ciba-Geigy Corporation, priority 1992, dated 1996).

What was measured:
Assay type in all cases: in vivo
Heliothis virescens = assay: Ovicidal/larvicidal activity on Heliothis virescens; conditions: 192 h, 400 ppm spray on eggs deposited on cotton, evaluated after 8 days, read-out: % reduction in population (hatching percentage of eggs and survival rate of caterpillars)
Protocol: Heliothis eggs which have been deposited on cotton are sprayed with a spray mixture prepared with an aqueous emulsion and comprising 400 ppm of the active ingredient. After 8 days, the hatching percentage of the eggs and the survival rate of the caterpillars are evaluated by comparing them with untreated control batches (% reduction in population).

[1] = system: Heliothis virescens caterpillars; assay: Activity against Heliothis virescens caterpillars; conditions: 144 h, 400 ppm spray on young soybean plants, first larval stage, evaluated after 6 days, read-out: percentage reduction in population or in feeding damage (% activity)
Protocol: (§1) Young soybean plants are sprayed with a spray mixture prepared with an aqueous emulsion and comprising 400 ppm of the active ingredient. After the spray coating has dried on, the soybean plants are populated with 10 Heliothis virescens in the first larval stage and placed into a plastic container. The test is evaluated after 6 days. The percentage reduction in population, or the percentage reduction in feeding damage (% activity), is determined by comparing the number of dead caterpillars and the feeding damage on the treated plants with those on the untreated plants.

Ctenocephalides felis = assay: Activity against Ctenocephalides felis; conditions: 504 h, 100 ppm in flea larvae nutrient medium, flea eggs, checked after 21 days
Protocol: 20 to 25 flea eggs are placed into a horizontally positioned 50 ml tissue culture flask into which 15 g of flea larvae nutrient medium comprising 100 ppm of the active ingredient to be tested have previously been introduced. The test flasks are incubated in an incubator at 26° to 27° C. and an atmospheric humidity of 60-70%. After 21 days, the flasks are checked for the presence of adult fleas, unhatched pupae and larvae.

Nilaparvata lugens = assay: Systemic activity against Nilaparvata lugens; conditions: 144 h, pots with rice plants in 400 ppm aqueous emulsion solution, larvae in stages 2 and 3, evaluated 6 days later, read-out: percentage reduction in population (% activity)
Protocol: Pots containing rice plants are placed into an aqueous emulsion solution comprising 400 ppm of the active ingredient. The rice plants are subsequently populated with larvae in stages 2 and 3. The test is evaluated 6 days later. The percentage reduction in population (% activity) is determined by comparing the numbers of plant hoppers on the treated plants with those on the untreated plants.

Tetranychus urticae = assay: Activity against Tetranychus urticae; conditions: 144 h, 400 ppm spray on young bean plants, mixed population, 6 days at 25° C, read-out: percentage reduction in population (% activity)
Protocol: Young bean plants are populated with a mixed population of Tetranychus urticae and, after 1 day, sprayed with a spray mixture prepared with an aqueous emulsion and comprising 400 ppm of the active ingredient. The plants are subsequently incubated for 6 days at 25° C and then evaluated. The percentage reduction in population (% activity) is determined by comparing the number of dead eggs, larvae and adults on the treated plants with those on the untreated ones.

Nephotettix cincticeps = assay: Activity against Nephotettix cincticeps (spray on rice plants); conditions: 504 h, 400 ppm spray on rice plants, larvae in stages 2 and 3, evaluated 21 days later, read-out: percentage reduction in population (% activity)
Protocol: Rice plants are treated with a spray mixture prepared with an aqueous emulsion and comprising 400 ppm of the active ingredient. After the spray coating has dried on, the rice plants are populated with leaf hopper larvae in stages 2 and 3. The test is evaluated 21 days later. The percentage reduction in population (% activity) is determined by comparing the number of surviving leaf hoppers on the treated plants with those on the untreated plants.

adult Anthonomus grandis = assay: Activity against adult Anthonomus grandis; conditions: 72 h, 400 ppm spray on young cotton plants, adults, evaluated after 3 days, read-out: percentage reduction in population or in feeding damage (% activity)
Protocol: as §1, with “cotton” for “soybean”, “adult Anthonomus grandis” for “Heliothis virescens in the first larval stage”, “3” for “6”, “beetles” for “caterpillars”

[2] = system: Crocidolomia binotalis caterpillars; assay: Activity against Crocidolomia binotalis caterpillars; conditions: Brassica oleracea, 72 h; 400 ppm spray on young cabbage plants, third larval stage, evaluated after 3 days; read-out: percentage reduction in population or in feeding damage (% activity)
Protocol: as §1, with “cabbage” for “soybean”, “infested” for “populated”, “Crocidolomia binotalis” for “Heliothis virescens”, “third” for “first”, “3” for “6”

Aphis craccivora = assay: Activity against Aphis craccivora; conditions: 400 ppm spray on pea seedlings, 20° C., evaluated after 3 and 6 days, read-out: percentage reduction in population (% activity)
Protocol: Pea seedlings are infected with Aphis craccivora, subsequently sprayed with a spray mixture comprising 400 ppm of the active ingredient, and incubated at 20° C. The test is evaluated after 3 and 6 days. The percentage reduction in population (% activity) is determined by comparing the number of dead aphids on the treated plants with those on the untreated plants.

Bemisia tabaci = assay: Activity against Bemisia tabaci; conditions: 336 h, 400 ppm spray on dwarf bean plants with nymphs, evaluated 14 days after application, read-out: activity (hatching percentages vs untreated control)
Protocol: Dwarf bean plants are placed into gauze cages and populated with adult Bemisia tabaci specimens (white fly). After oviposition has taken place, all adults are removed and, 10 days later, the plants with the nymphs located thereon are treated with a spray mixture of the active ingredients to be tested (concentration 400 ppm), which has been prepared with an aqueous emulsion. The test is evaluated for hatching percentages 14 days after the active ingredient has been applied by comparison with the untreated control batches. […] An activity of over 80% is shown, in particular, by compound Nos. 1.01, 2.01 to 2.08, 2.10 to 2.16, 2.22, 2.23, 3.01, 4.01, 4.02, 4.05, 4.06, 5.02, 5.03, 5.06 to 5.08, 5.10, 5.11, 5.20, 5.21 and 6.09.

O=C(CC=C(F)F)OCCOc1ccc(Oc2ccccc2)cc1 [Compound 1.01, 2-(4-phenoxyphenoxy)ethyl-4,4-difluorobut-3-enoate]
> 80%: pest or weed control at 400 ppm (Heliothis virescens) | activity at 400 ppm [1] | pest or weed control at 100 ppm (Ctenocephalides felis) | activity at 400 ppm (Nilaparvata lugens) | activity at 400 ppm (Tetranychus urticae) | activity at 400 ppm (Nephotettix cincticeps) | activity at 400 ppm (adult Anthonomus grandis) | activity at 400 ppm [2] | activity at 400 ppm (Aphis craccivora) | pest or weed control at 400 ppm (Bemisia tabaci)

O=C(CCCCCC=C(F)F)OCCOc1ccc(Oc2ccccc2)cc1 [Compound 3.01]
> 80%: pest or weed control at 400 ppm (Heliothis virescens) | activity at 400 ppm [1] | pest or weed control at 100 ppm (Ctenocephalides felis) | activity at 400 ppm (Nilaparvata lugens) | activity at 400 ppm (Tetranychus urticae) | activity at 400 ppm (Nephotettix cincticeps) | activity at 400 ppm (adult Anthonomus grandis) | activity at 400 ppm [2] | activity at 400 ppm (Aphis craccivora) | pest or weed control at 400 ppm (Bemisia tabaci)
